Source: patent US11000033B2, “Ketone or oxime compound, and herbicide” (NISSAN CHEMICAL CORPORATION, priority 2014, dated 2021)

Experiments:
Format in all cases: in vivo
Monochoria vaginalis = assay: Test Example 1: herbicidal activity, application before weed generation in submerged conditions (symbol C); details: application herbicide amount 320 g/ha
How it was run: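 Flooded alluvial soil (4 cm water) was mixed-sown with the three weed species, and 2.5-leaf rice seedlings were transplanted. On sowing day, a water-diluted emulsion at a predetermined rate was applied to the water surface. After 3 weeks in a 25–30 °C greenhouse, effect was scored 0–5.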

[1] = test system: Echinochloa crus-galli var. crus-galli; assay: Test Example 5: herbicidal effect by foliage application, plastic box (symbol H); details: 320 g/ha, 3 weeks after application
How it was run: (§1)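 Seeds were sown in sterilized diluvial soil, covered with about 1.5 cm of soil and grown 14 days in a greenhouse at 25° C. to 30° C. An emulsifiable formulation diluted in water to a set rate was sprayed over foliage, and injury was scored 3 weeks later.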

Apera spica-venti = assay: Test Example 5: herbicidal effect by foliage application, plastic box (symbol L); details: 320 g/ha, 3 weeks after application
How it was run: as §1

Stellaria media = assay: Test Example 4: herbicidal effect by soil treatment (symbol P)
How it was run: (§2)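 Seeds were sown in sterilized diluvial soil, covered with about 1.5 cm of soil, and the soil surface was sprayed with a water-diluted emulsion of the compound at a predetermined rate. Plants grew in a greenhouse at 25° C. to 30° C.; effects were scored visually 3 weeks after application.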

[2] = test system: Echinochloa crus-galli var. crus-galli; assay: Test Example 4: herbicidal effect by soil treatment (symbol H)
How it was run: as §2

Abutilon theophrasti = assay: Test Example 5: herbicidal effect by foliage application, plastic box (symbol M); details: 320 g/ha, 3 weeks after application
How it was run: as §1

Scirpus juncoides = assay: Test Example 2: herbicidal activity, application during weed generation in submerged conditions (symbol B); details: Table 23; application herbicide amount 320 g/ha; grade 0-5 by criteria of Test Example 1
How it was run: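 Visual herbicidal ratings, taken three weeks after dosing, reflect post-emergence water-surface application to seedlings at one to two leaves. Conditions: co-sown weeds in alluvial soil flooded to 4 cm, greenhouse held at 25° C. to 30° C.; compound given as water-diluted emulsion at a fixed herbicide amount.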

beet = assay: Test Example 4: effect on crop by soil treatment (symbol f); details: for f: beet, effect grade on crop: 320 g/ha; for f: beet, effect on crop grade: application herbicide amount 320 g/ha
How it was run: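 Steps: fill box with sterilized diluvial soil; sow seed spot-like; cover with ~1.5 cm soil; grow in greenhouse (25° C. to 30° C.).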

rapeseed = assay: Test Example 5: effect on crop by foliage application, plastic box (symbol g); details: 320 g/ha, 3 weeks after application
How it was run: (§3)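 Soil: sterilized diluvial. Container: plastic box, 21 × 13 cm, 7 cm deep. Sowing: spot-like, ~1.5 cm cover. Growth: greenhouse, 25° C. to 30° C.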

rice plant = assay: Test Example 5: effect on crop by foliage application, plastic box (symbol b); details: 320 g/ha, 3 weeks after application
How it was run: as §3

Digitaria ciliaris = assay: Test Example 4: herbicidal effect by soil treatment (symbol F)
How it was run: as §2

Alopecurus myosuroides = assay: Test Example 5: herbicidal effect by foliage application, plastic box (symbol J); details: 320 g/ha, 3 weeks after application
How it was run: as §1

[3] = application herbicide amount 320 g/ha

Row | SMILES | Herbicidal effect grade, C: Monochoria vaginalis (Monochoria vaginalis) | H: Echinochloa crus-galli var. crus-galli, herbicidal effect grade [1] | L: Apera spica-venti, herbicidal effect grade (Apera spica-venti) | P: Stellaria media, herbicidal effect grade (Stellaria media; 320 g/ha) | H: Echinochloa crus-galli var. crus-galli, herbicidal effect grade ([2]; 320 g/ha) | M: Abutilon theophrasti, herbicidal effect grade (Abutilon theophrasti) | Herbicidal effect grade, B: Scirpus juncoides (Scirpus juncoides) | f: beet, effect grade on crop (beet) | g: rapeseed, effect on crop grade (rapeseed) | b: directly sowed rice plant, effect on crop grade (rice plant) | F: Digitaria ciliaris, herbicidal effect grade (Digitaria ciliaris; 320 g/ha) | J: Alopecurus myosuroides, herbicidal effect grade (Alopecurus myosuroides) | P: Stellaria media, herbicidal effect grade (Stellaria media; [3]) | H: Echinochloa crus-galli var. crus-galli, herbicidal effect grade [2, 3] | f: beet, effect on crop grade (beet) | F: Digitaria ciliaris, herbicidal effect grade (Digitaria ciliaris; [3])
1 | CON=C(C)CC1CC(OS(=O)(=O)c2ccc(C)cc2)=C(c2c(C)cc(C)cc2C)C1=O (stereo not drawn) [1-161] | 1 (Herbicidal ratio of 5% or higher and lower than 20%) | 4 (Herbicidal ratio of 70% or higher and lower than 90%) | 5 (Herbicidal ratio of 90% or more (almost completely withered)) | 0 (Herbicidal ratio of 5% or lower (almost no effect)) | 0 (Herbicidal ratio of 5% or lower (almost no effect)) | 0 (Herbicidal ratio of 5% or lower (almost no effect)) | 4 (Herbicidal ratio of 70% or higher and lower than 90%) | 0 (Herbicidal ratio of 5% or lower (almost no effect)) | 3 (Herbicidal ratio of 40% or higher and lower than 70%) | 3 (Herbicidal ratio of 40% or higher and lower than 70%) | 5 (Herbicidal ratio of 90% or more (almost completely withered)) | 5 (Herbicidal ratio of 90% or more (almost completely withered)) | – | – | – | –
2 | CON=C(C)CC1CC(OC(=O)c2ccc(S(C)(=O)=O)c(C(=O)OC)c2Cl)=C(c2c(C)cc(C)cc2C)C1=O (stereo not drawn) [1-162] | 3 (Herbicidal ratio of 40% or higher and lower than 70%) | 5 (Herbicidal ratio of 90% or more (almost completely withered)) | 5 (Herbicidal ratio of 90% or more (almost completely withered)) | 0 (Herbicidal ratio of 5% or lower (almost no effect)) | 5 (Herbicidal ratio of 90% or more (almost completely withered)) | 4 (Herbicidal ratio of 70% or higher and lower than 90%) | 1 (Herbicidal ratio of 5% or higher and lower than 20%) | 0 (Herbicidal ratio of 5% or lower (almost no effect)) | 4 (Herbicidal ratio of 70% or higher and lower than 90%) | 5 (Herbicidal ratio of 90% or more (almost completely withered)) | 5 (Herbicidal ratio of 90% or more (almost completely withered)) | 5 (Herbicidal ratio of 90% or more (almost completely withered)) | – | – | – | –
3 | CON=C(C)CC1CC(OC(=O)C(C)Oc2ccc(Oc3ccc(Cl)cc3Cl)cc2)=C(c2c(C)cc(C)cc2C)C1=O (stereo not drawn) [1-163] | 0 (Herbicidal ratio of 5% or lower (almost no effect)) | 5 (Herbicidal ratio of 90% or more (almost completely withered)) | 5 (Herbicidal ratio of 90% or more (almost completely withered)) | 0 (Herbicidal ratio of 5% or lower (almost no effect)) | 5 (Herbicidal ratio of 90% or more (almost completely withered)) | 4 (Herbicidal ratio of 70% or higher and lower than 90%) | 4 (Herbicidal ratio of 70% or higher and lower than 90%) | 0 (Herbicidal ratio of 5% or lower (almost no effect)) | 5 (Herbicidal ratio of 90% or more (almost completely withered)) | 5 (Herbicidal ratio of 90% or more (almost completely withered)) | 5 (Herbicidal ratio of 90% or more (almost completely withered)) | 5 (Herbicidal ratio of 90% or more (almost completely withered)) | – | – | – | –
4 | CC(=O)C(C(C)=O)C1CC(O)=C(c2c(C)cc(C)cc2C)C1=O (stereo not drawn) [2-002] | 0 (Herbicidal ratio of 5% or lower (almost no effect)) | 3 (Herbicidal ratio of 40% or higher and lower than 70%) | 2 (Herbicidal ratio of 20% or higher and lower than 40%) | 0 (Herbicidal ratio of 5% or lower (almost no effect)) | 0 (Herbicidal ratio of 5% or lower (almost no effect)) | 0 (Herbicidal ratio of 5% or lower (almost no effect)) | 0 (Herbicidal ratio of 5% or lower (almost no effect)) | 0 (Herbicidal ratio of 5% or lower (almost no effect)) | 3 (Herbicidal ratio of 40% or higher and lower than 70%) | 4 (Herbicidal ratio of 70% or higher and lower than 90%) | 0 (Herbicidal ratio of 5% or lower (almost no effect)) | 4 (Herbicidal ratio of 70% or higher and lower than 90%) | – | – | – | –
5 | COC(=O)C(C(C)=O)C1CC(O)=C(c2c(C)cc(C)cc2C)C1=O (stereo not drawn) [2-003] | 0 (Herbicidal ratio of 5% or lower (almost no effect)) | 5 (Herbicidal ratio of 90% or more (almost completely withered)) | 4 (Herbicidal ratio of 70% or higher and lower than 90%) | 0 (Herbicidal ratio of 5% or lower (almost no effect)) | 0 (Herbicidal ratio of 5% or lower (almost no effect)) | 1 (Herbicidal ratio of 5% or higher and lower than 20%) | 0 (Herbicidal ratio of 5% or lower (almost no effect)) | 0 (Herbicidal ratio of 5% or lower (almost no effect)) | 3 (Herbicidal ratio of 40% or higher and lower than 70%) | 5 (Herbicidal ratio of 90% or more (almost completely withered)) | 4 (Herbicidal ratio of 70% or higher and lower than 90%) | 5 (Herbicidal ratio of 90% or more (almost completely withered)) | – | – | – | –
6 | CCC(=O)CC1CC(O)=C(c2c(C)cc(C)cc2C)C1=O (stereo not drawn) [2-006] | 3 (Herbicidal ratio of 40% or higher and lower than 70%) | 4 (Herbicidal ratio of 70% or higher and lower than 90%) | 3 (Herbicidal ratio of 40% or higher and lower than 70%) | – | – | 0 (Herbicidal ratio of 5% or lower (almost no effect)) | 2 (Herbicidal ratio of 20% or higher and lower than 40%) | – | 0 (Herbicidal ratio of 5% or lower (almost no effect)) | 4 (Herbicidal ratio of 70% or higher and lower than 90%) | – | 4 (Herbicidal ratio of 70% or higher and lower than 90%) | 0 (Herbicidal ratio of 5% or lower (almost no effect)) | 5 (Herbicidal ratio of 90% or more (almost completely withered)) | 0 (Herbicidal ratio of 5% or lower (almost no effect)) | 5 (Herbicidal ratio of 90% or more (almost completely withered))
7 | COCC(=O)CC1CC(O)=C(c2c(C)cc(C)cc2C)C1=O (stereo not drawn) [2-007] | 0 (Herbicidal ratio of 5% or lower (almost no effect)) | 1 (Herbicidal ratio of 5% or higher and lower than 20%) | 3 (Herbicidal ratio of 40% or higher and lower than 70%) | – | – | 0 (Herbicidal ratio of 5% or lower (almost no effect)) | 0 (Herbicidal ratio of 5% or lower (almost no effect)) | – | 1 (Herbicidal ratio of 5% or higher and lower than 20%) | 3 (Herbicidal ratio of 40% or higher and lower than 70%) | – | 4 (Herbicidal ratio of 70% or higher and lower than 90%) | 0 (Herbicidal ratio of 5% or lower (almost no effect)) | 5 (Herbicidal ratio of 90% or more (almost completely withered)) | 0 (Herbicidal ratio of 5% or lower (almost no effect)) | 5 (Herbicidal ratio of 90% or more (almost completely withered))
